In US6858591B2, “Antibiotic AA 896 analogs” (Wyeth Holdings Corporation, priority 2001, dated 2005) one finds MIC data, which are given here for 4 compounds.

≈ marks a conversion by molar mass, not a printed value.

Holding throughout (experiment): In vitro MIC, broth dilution
What all share (type): cell-based
Background: In broth dilution the organism is exposed to a series of concentrations in liquid medium.

The test system of one assay is E. coli GC 3226. Particulars: Escherichia coli, GC3226.
The test system of a further assay is E. coli GC 4559. Particulars: Escherichia coli, GC4559.
The next assay has as its system E. cloacae GC 3783. The settings on record: Enterobacter cloacae, GC3783.
A further assay deals with S. marcescens GC 4077. The settings on record: Serratia marcescens, GC4077.
Another assay has as its system P. aeruginosa GC 4532. The settings on record: Pseudomonas aeruginosa, GC4532.
The subject of another assay is K. pneumoniae GC 4534. Particulars: Klebsiella pneumoniae, GC4534.
In the next assay the test system is P. aeruginosa GC 2214. Particulars: Pseudomonas aeruginosa, GC2214.
The test system of a further assay is E. coli GC 4560. The settings on record: Escherichia coli, GC4560.
The next assay has as its system E. coli GC 2203. The settings on record: Escherichia coli, GC2203.
Another assay concerns M. morganii GC 4531. Particulars: Morganella morganii, GC4531.
The test system of another assay is S. aureus GC 4536. The settings on record: Staphylococcus aureus, GC4536. An outline of the steps:
(§1)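 Broth microdilution per NCCLS in Mueller-Hinton II, inoculum 5×10^5 CFU/ml, antibiotic range 64-0.06 μg/ml. Plates incubated 18 hours at 35° C. in ambient air; MIC taken as lowest concentration inhibiting visible growth.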

The test system of a further assay is E. faecalis GC 842. Particulars: Enterococcus faecalis, GC842. An outline of the steps:
as §1

The subject of another assay is CNS GC 4538. An outline of the steps:
as §1

The next assay concerns CNS GC 4547. An outline of the steps: as §1
In the next assay the test system is E. faecalis GC 2242. Particulars: Enterococcus faecalis, GC2242. An outline of the steps:
as §1

In another assay the test system is E. faecalis GC 4555. Particulars: Enterococcus faecalis, GC4555. An outline of the steps: as §1
A further assay deals with CNS GC 4537. An outline of the steps: as §1
The next assay deals with S. aureus GC 1131. Particulars: Staphylococcus aureus, GC1131. An outline of the steps: as §1
Another assay concerns S. aureus GC 2216. Particulars: Staphylococcus aureus, GC2216. An outline of the steps: as §1
For the next assay, the system named is C. albicans GC 3066. The settings on record: Candida albicans, GC3066.

As usually defined, the MIC is the lowest concentration that inhibits growth of the organism. A higher MIC goes with a need for much substance. With `COc1ccc(Cn2c(=O)ccn([C@@H]3OC([C@H](O)[C@H](NCCCNC(=O)[C@@H](NC(=O)[C@H](CCCNC(=N)N[N+](=O)O)NC(=O)N[C@H](C(=O)OCc4ccccc4)C(C)C)[C@@H](O)C(C)C)C(=O)OC(C)(C)C)[C@@H](O[Si](C)(C)C(C)(C)C)[C@H]3O[Si](C)(C)C(C)(C)C)c2=O)cc1` (stereo partly drawn) [Example 26, 1-Benzyl 17-(tert-butyl)(2S,6S,9S,16S)-16-[(R)-[(3R,4R,5R)-3,4-bis{[tert-butyl(dimethyl)silyl]oxy}-5-(3-(4-methoxybenzyl)-2,4-dioxo-3,4-dihydro-1(2H)-pyrimidinyl)tetrahydro-2-furanyl](hydroxy)methyl]-6-(3-{[(2,2-dioxido-2lambda˜1˜-diazanyl)(imino)methyl]amino}propyl)-9-[(1S)-1-hydroxy-2-methylpropyl]-2-isopropyl-4,7,10-trioxo-3,5,8,11,15-pentaazaheptadecane-1,17-dioate], the MIC against E. coli GC 3226, in the assay on E. coli GC 4559, against E. cloacae GC 3783, against S. marcescens GC 4077, in the assay with P. aeruginosa GC 4532 and in the assay with K. pneumoniae GC 4534 was greater than 128 mg/L each time. Moreover, the minimum inhibitory concentration (MIC) in the assay on P. aeruginosa GC 2214 was 128 mg/L; in the assay on E. coli GC 4560, greater than 128 mg/L; against E. coli GC 2203, greater than 128 mg/L; against M. morganii GC 4531 it was greater than 128 mg/L; in the assay on S. aureus GC 4536, greater than 128 mg/L; in the assay on E. faecalis GC 842, greater than 128 mg/L. Besides, the MIC in the assay on CNS GC 4538 is greater than 128 mg/L; in the assay with CNS GC 4547, greater than 128 mg/L; with E. faecalis GC 2242 it was 128 mg/L; against E. faecalis GC 4555, greater than 128 mg/L; in the assay with CNS GC 4537 it was greater than 128 mg/L; in the assay on S. aureus GC 1131, greater than 128 mg/L. The MIC against S. aureus GC 2216 and against C. albicans GC 3066 was greater than 128 mg/L each time.
Regarding `COc1ccc(Cn2c(=O)ccn([C@@H]3OC([C@H](O)[C@H](NCCCNC(=O)[C@H](CC(C)C)NC(=O)[C@H](CCCNC(=N)N[N+](=O)O)NC(=O)N[C@H](C(=O)OCc4ccccc4)C(C)C)C(=O)OC(C)(C)C)[C@@H](O[Si](C)(C)C(C)(C)C)[C@H]3O[Si](C)(C)C(C)(C)C)c2=O)cc1` (stereo partly drawn) [Example 28, 1-Benzyl 17-(tert-butyl)(2S,6S,9S,16S)-16-[(R)-[(3R,4R,5R)-3,4-bis{[tert-butyl(dimethyl)silyl]oxy}-5-(3-(4-methoxybenzyl)-2,4-dioxo-3,4-dihydro-1(2H)-pyrimidinyl)tetrahydro-2-furanyl](hydroxy)methyl]-6-(3-{[(2,2-dioxido-2lambda˜1˜-diazanyl)(imino)methyl]amino}propyl)-9-isobutyl-2-isopropyl-4,7,10-trioxo-3,5,8,11,15-pentaazaheptadecane-1,17-dioate], the minimum inhibitory concentration (MIC) with E. coli GC 3226, against E. coli GC 4559, in the assay with E. cloacae GC 3783, with S. marcescens GC 4077, with P. aeruginosa GC 4532 and with K. pneumoniae GC 4534 was greater than 128 mg/L in each case. Moreover, the minimum inhibitory concentration (MIC) in the assay with P. aeruginosa GC 2214, in the assay on E. coli GC 4560, in the assay on E. coli GC 2203, against M. morganii GC 4531, in the assay with S. aureus GC 4536 and in the assay with E. faecalis GC 842 was greater than 128 mg/L each time. Besides, the minimal inhibitory concentration (MIC) against CNS GC 4538, in the assay on CNS GC 4547, against E. faecalis GC 2242, in the assay with E. faecalis GC 4555, in the assay with CNS GC 4537 and against S. aureus GC 1131 was greater than 128 mg/L throughout. Also, the minimum inhibitory concentration (MIC) in the assay with S. aureus GC 2216 and in the assay on C. albicans GC 3066 was greater than 128 mg/L in each case.
On to `COc1ccc(Cn2c(=O)ccn([C@@H]3OC([C@H](O)[C@H](NCCCNC(=O)[C@H](CC(C)C)NC(=O)[C@H](CCCNC(=N)N)NC(=O)N[C@H](C(=O)O)C(C)C)C(=O)OC(C)(C)C)[C@@H](O[Si](C)(C)C(C)(C)C)[C@H]3O[Si](C)(C)C(C)(C)C)c2=O)cc1` (stereo partly drawn) [Example 29, (2S,6S,9S,16S)-6-(3-{[Amino(imino)methyl]amino}propyl)-16-[(R)-[(3R,4R,5R)-3,4-bis{[tert-butyl(dimethyl)silyl]oxy}-5-(3-(4-methoxybenzyl)-2,4-dioxo-3,4-dihydro-1(2H)-pyrimidinyl)tetrahydro-2-furanyl](hydroxy)methyl]-9-isobutyl-2-isopropyl-19,19-dimethyl-4,7,10,17-tetraoxo-18-oxa-3,5,8,11,15-pentaazaicosan-1-oic acid], for which the MIC against E. coli GC 3226 was greater than 128 mg/L; against E. coli GC 4559 it was greater than 128 mg/L; in the assay with E. cloacae GC 3783 it was 128 mg/L (≈ 107 µM); in the assay with S. marcescens GC 4077, 128 mg/L (≈ 107 µM); in the assay on P. aeruginosa GC 4532 it was 128 mg/L (≈ 107 µM); with K. pneumoniae GC 4534, 128 mg/L (≈ 107 µM). Further, the MIC was 128 mg/L (≈ 107 µM) in the assay on P. aeruginosa GC 2214; 128 mg/L (≈ 107 µM) against E. coli GC 4560; greater than 128 mg/L in the assay with E. coli GC 2203; 128 mg/L (≈ 107 µM) against M. morganii GC 4531; greater than 128 mg/L against S. aureus GC 4536; 128 mg/L (≈ 107 µM) in the assay with E. faecalis GC 842. The minimal inhibitory concentration (MIC) is greater than 128 mg/L against CNS GC 4538; greater than 128 mg/L against CNS GC 4547; 128 mg/L (≈ 107 µM) against E. faecalis GC 2242; greater than 128 mg/L with E. faecalis GC 4555; greater than 128 mg/L in the assay with CNS GC 4537; greater than 128 mg/L with S. aureus GC 1131. Further, the MIC against S. aureus GC 2216 and with C. albicans GC 3066 was greater than 128 mg/L throughout.
As for `COc1ccc(Cn2c(=O)ccn([C@@H]3OC([C@H](O)[C@H](NCCCNC(=O)C(NC(=O)[C@H](CCCNC(=N)N[N+](=O)[O-])NC(=O)N[C@H](C(=O)OCc4ccccc4)C(C)C)[C@@H](C)O)C(=O)OC(C)(C)C)[C@@H](O[Si](C)(C)C(C)(C)C)[C@H]3O[Si](C)(C)C(C)(C)C)c2=O)cc1` (stereo partly drawn) [Example 30, 1-Benzyl 17-(tert-butyl)(2S,6S,9S,16S)-16-[(R)-[(3R,4R,5R)-3,4-bis{[tert-butyl(dimethyl)silyl]oxy}-5-(3-(4-methoxybenzyl)-2,4-dioxo-3,4-dihydro-1(2H)-pyrimidinyl)tetrahydro-2-furanyl](hydroxy)methyl]-6-(3-{[(2,2-dioxido-2lambda˜1˜-diazanyl)(imino)methyl]amino}propyl)-9-[(1S)-1-hydroxyethyl]-2-isopropyl-4,7,10-trioxo-3,5,8,11,15-pentaazaheptadecane-1,17-dioate], the MIC was greater than 128 mg/L in the assay on E. coli GC 3226; greater than 128 mg/L with E. coli GC 4559; 128 mg/L (≈ 97.4 µM) with E. cloacae GC 3783; 128 mg/L (≈ 97.4 µM) against S. marcescens GC 4077; 64 mg/L (≈ 48.7 µM) with P. aeruginosa GC 4532; 128 mg/L (≈ 97.4 µM) with K. pneumoniae GC 4534. Further, the MIC against P. aeruginosa GC 2214 is 64 mg/L (≈ 48.7 µM); against E. coli GC 4560, 64 mg/L (≈ 48.7 µM); against E. coli GC 2203, greater than 128 mg/L; with M. morganii GC 4531, 128 mg/L (≈ 97.4 µM); in the assay with S. aureus GC 4536, 128 mg/L (≈ 97.4 µM); against E. faecalis GC 842, 128 mg/L (≈ 97.4 µM). For the same compound, the MIC in the assay with CNS GC 4538 came to 128 mg/L (≈ 97.4 µM); in the assay on CNS GC 4547, 128 mg/L (≈ 97.4 µM); against E. faecalis GC 2242 it was 64 mg/L (≈ 48.7 µM); against E. faecalis GC 4555, 64 mg/L (≈ 48.7 µM); in the assay with CNS GC 4537, 128 mg/L (≈ 97.4 µM); in the assay with S. aureus GC 1131 it was 128 mg/L (≈ 97.4 µM). For the same compound, the values for the minimum inhibitory concentration (MIC) in the assay on S. aureus GC 2216 and in the assay on C. albicans GC 3066 were 128 mg/L (≈ 97.4 µM) and 64 mg/L (≈ 48.7 µM), respectively.
